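Growth conditions: 96-well plates. Treatment: test compound, 48 hours, 5 concentrations. Analysis: linear interpolation between bracketing concentrations; unreached endpoints set to highest concentration. At the GI50, growth is halved. TGI is the concentration that stops growth completely.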 Where a SMILES comes first, the peptide text is derived from it. The star is where a group is joined. OBn = c1ccc(CO*)cc1

Some test systems named below: SN12C renal; SF-268 CNS; IGROV1 ovarian; HT29 colon; COLO 205 colon; PC-3 prostate; NCI-H23 lung; SW-620 colon; A549 NSCLC; OVCAR-8 ovarian; HL-60(TB) leukemia; KM12 colon; MALME-3M melanoma; SK-MEL-5 melanoma; UACC-257 melanoma; MDA-MB-231 breast; SF-295 CNS; SNB-75 CNS; RXF 393 renal; UACC-62 melanoma; SK-MEL-28 melanoma; SR leukemia; HCT-15 colon; EKVX NSCLC; RPMI-8226 leukemia; K-562 leukemia; DU-145 prostate; TK-10 renal; MCF7 breast; HCC-2998 colon; M14 melanoma; MDA-N; CAKI-1 renal; HOP-62 NSCLC; SK-OV-3 ovarian; MOLT-4 leukemia; T-47D breast; 786-0 renal; CCRF-CEM leukemia; OVCAR-3 ovarian; UO-31 renal; NCI-H460 lung; HCT-116 colon; NCI-H522 lung; MDA-MB-435; ACHN renal.

Common to all, as to test: NCI tumour cell line growth inhibition, 48 h

With `Clc1ccc(/C=N/Nc2nnc3c4ccccc4c4ncccc4c3n2)cc1`, the TGI with SN12C renal, with SF-268 CNS, in the assay with IGROV1 ovarian, in the assay with HT29 colon, in the assay on COLO 205 colon and in the assay with PC-3 prostate was more than 10 µM throughout. In addition, the TGI in the assay on NCI-H23 lung, in the assay with SW-620 colon, with A549 NSCLC, in the assay with OVCAR-8 ovarian, with HL-60(TB) leukemia and in the assay with KM12 colon was more than 10 µM in each case. Besides, the TGI in the assay with MALME-3M melanoma, in the assay with SK-MEL-5 melanoma, in the assay with UACC-257 melanoma, in the assay on MDA-MB-231 breast, in the assay with SF-295 CNS and in the assay on SNB-75 CNS was more than 10 µM in each case. The TGI in the assay with RXF 393 renal, in the assay on UACC-62 melanoma, in the assay with SK-MEL-28 melanoma, with SR leukemia, with HCT-15 colon and in the assay on EKVX NSCLC was more than 10 µM in each case. The TGI in the assay on RPMI-8226 leukemia, in the assay on K-562 leukemia, with DU-145 prostate, with TK-10 renal, in the assay on MCF7 breast and in the assay on HCC-2998 colon was more than 10 µM throughout. Besides, the TGI with M14 melanoma, in the assay on MDA-N, in the assay with CAKI-1 renal, in the assay on HOP-62 NSCLC, in the assay on SK-OV-3 ovarian and with MOLT-4 leukemia was more than 10 µM each time. In addition, the TGI with T-47D breast and in the assay with 786-0 renal was more than 10 µM each time.
For `CC(=O)NC(C(=O)N1CCCC1C(=O)OCc1ccccc1)C(C)C` (stereo not drawn) (Ac-Val-Pro-OBn; configuration not given here), the GI50 with MDA-N was 80.7 µg/mL; with CCRF-CEM leukemia, 52 µg/mL.
On to `O=C(O)CC(NC(=O)CP(=O)(O)O)C(=O)O.[NH-]C1CCCCC1[NH-].[Pt+2]` (stereo not given), for which the GI50 in the assay on SN12C renal is 96.6 µM; in the assay with SF-268 CNS it was 78.8 µM; with HT29 colon it was 56.3 µM; in the assay on COLO 205 colon, 51 µM; in the assay with OVCAR-3 ovarian, 88.3 µM; in the assay on UO-31 renal, 41.3 µM. Moreover, the GI50 in the assay on NCI-H460 lung is 42.2 µM; in the assay with SW-620 colon it was 19.6 µM; with A549 NSCLC, 56.4 µM; with OVCAR-8 ovarian, 74.4 µM; with HL-60(TB) leukemia, 40.2 µM; with HCT-116 colon, 30.4 µM. The GI50 with KM12 colon was 84.1 µM; with SK-MEL-5 melanoma, 70.2 µM; in the assay on NCI-H522 lung it was 60.8 µM; in the assay on SF-295 CNS, 56.3 µM; with HCT-15 colon it was 67.9 µM; in the assay with RPMI-8226 leukemia, 5.93 µM. Moreover, the GI50 with K-562 leukemia was 5.38 µM; with MDA-MB-435, 75.9 µM; in the assay with MCF7 breast, 75.8 µM; with ACHN renal it was 84.7 µM; in the assay on M14 melanoma it was 77.2 µM; with MDA-N, 70.5 µM. In addition, the GI50 in the assay on CAKI-1 renal is 96.2 µM; with MOLT-4 leukemia, 675 nM; in the assay on T-47D breast, 94.7 µM; in the assay on 786-0 renal, 52 µM; with CCRF-CEM leukemia it was 18 µM. The compound further displayed a TGI in the assay with MOLT-4 leukemia of 31.4 µM.

For the origin of these results see PubChem BioAssay (NCI).
